Results: EP3827825A1, “USE OF 3, 4-DIARYLPYRAZOLES AS ANTIBACTERIAL AGENTS” (Wageningen Universiteit, priority 2019, dated 2021)
≈ marks a conversion by molar mass, not a printed value. Like-named read-outs stand apart in the source and are kept apart here.

Tests used:
S. aureus Newman = experiment: Minimal inhibitory concentration (MIC), double-dilution in broth, OD600; format: cell-based, Staphylococcus aureus Newman; details: unit assumed
Experimental: (§1) In short, a stock solution of 5 mg/mL of HKIs in DMSO was made. This stock was diluted to 50 µg/mL in broth in a 96 well plate. Dilutions were made (factor 2) directly in the plate with a multi-channel pipet. Bacteria cultured in suspension overnight were then added to the plate (except negative control) and the plate was incubated for 24 hours. After 24 hours the OD600 was measured using a spectrophotometer. A positive control (with bacteria, without HKI) was also measured on each plate.
Bacterial strains used in this study for antibacterial susceptibility testing (Table S2) were propagated using standard microbiological procedures. Minimal inhibitory concentrations (MICs) were determined following a standard double-dilution method (42), 73. […] For M. marinum, MICs were determined in Middlebrook 7H9 broth (Difco) and MICs were determined after 3 days incubation at 30 °C.
(§2) Grow the bacterial colonies to be tested from single colonies on an agar plate in LB broth or suitable bacterial growth medium overnight at 37°C. Prepare a 5 mg/mL stock solution of compounds to be tested in DMSO. One 96-well plate per bacterial strain was prepared. First, put 50 uL of medium to each well. Add 48 µL of medium to all wells in row A. Pipet 2 µL of antimicrobial master stock into the top well (row A). Beware, the antimicrobial concentration will be diluted 2x after adding the bacterial culture. Total volume in each well will be 100 µL. In A11, pipet 2 µL of DMSO. Make a serial dilution from row A to row H, pipetting 50 µL from the previous row into the new one. Mix well by pipetting up and down. Discard the last 50 µL so that there is 50 µl in each well In a clean, new plastic pipetting cup, dilute the overnight bacterial culture 100 times. Add 100 µL of bacterial overnight culture to 9900 µL of medium. Mix the suspension well. Once the serial dilutions are complete for all antimicrobial compounds, add 50 µL of diluted overnight bacterial culture to each well (except column 12). Mix by pipetting or put the plate on the shaker. Per 2 plates, close with parafilm around the edges and place in the incubator overnight. After overnight culturing, measure bacterial growth on the SpectraMax. The lowest concentration where no growth is observed is the MIC. To determine the MIB pipette 5 µL from each well of the 96 well plate where now growth was observed on to an LB agar plate, without antimicrobial. Put the plates in the incubator to grow overnight. The minimal concentration where no growth can be seen on the agar plate is the MBC.

P. multocida = experiment: as above; format: cell-based, Pasteurella multocida; details: unit assumed
Experimental: as §1, with “each plate. The MICs were not determined in duplo/triplicate in the same experiment, however, the MICs of several HKIs were measured in different experiments and no major differences (max. 1x dilution) were found in the MICs between the experiments.” for “each plate.”
(§3) Bacterial strains used in this study for antibacterial susceptibility testing (Table S2) were propagated using standard microbiological procedures. Minimal inhibitory concentrations (MICs) were determined following a standard double-dilution method (42), 73. MICs were recorded as the lowest concentration of the compound where no visible growth was observed. After plating the dilutions around the MIC or growing them in fresh MH media, minimal bactericidal concentration (MBC) was recorded as the lowest concentration of the compound at which no colonies were formed or no growth was observed, respectively. For M. marinum, MICs were determined in Middlebrook 7H9 broth (Difco) and MICs were determined after 3 days incubation at 30 °C.
as §2

NRK-52E = experiment: Cell toxicity, Alamar blue assay, 24 hours exposure; format: cell-based; details: for IC50: Rattus norvegicus, read-out: IC50 NRK-52E (50 mg/mL stock)
Experimental: (§4) Toxicity was primarily determined by measuring cytotoxicity with the Alamar blue assay. In short, cells (HEK293, NRK-52E and Caco-2) were plated in 96-well plates and cultured overnight. HKI compounds were diluted to concentrations ranging from 0.39 to 500 µg/mL in serum-free medium and added to the cells.
(§5) After exposure, cells were incubated for 24 hours. Experiments were mostly performed by single measurement. […] After 24 hours HKIs were removed from the cells and Alamar blue was added, incubated for 45 minutes and fluorescence was measured on a spectrophotometer. Alamar blue measures the conversion of blue, low fluorescent resazurin into high fluorescent pink resorufin. This conversion can only be made in viable mitochondria in viable cells and therefore this dye provides a measure for cytotoxicity.

HEK293 = experiment: as above; format: cell-based; details: for IC50: Homo sapiens
Experimental: as §4, §5

M. marinum = experiment: Minimal inhibitory concentration (MIC), Middlebrook 7H9 broth, 3 days at 30 °C; format: cell-based, Mycobacterium marinum; details: unit assumed
Experimental: as §1, with “each plate. The MICs were not determined in duplo/triplicate in the same experiment, however, the MICs of several HKIs were measured in different experiments and no major differences (max. 1x dilution) were found in the MICs between the experiments.” for “each plate.”
as §3, §2

E. coli JW5503 = format: cell-based, Escherichia coli; details: unit assumed
Experimental: as §1, with “each plate. The MICs were not determined in duplo/triplicate in the same experiment, however, the MICs of several HKIs were measured in different experiments and no major differences (max. 1x dilution) were found in the MICs between the experiments.” for “each plate.”
as §3, §2

S. suis = experiment: Minimal inhibitory concentration (MIC), double-dilution in broth, OD600; format: cell-based, Streptococcus suis; details: unit assumed
Experimental: as §1, with “each plate. The MICs were not determined in duplo/triplicate in the same experiment, however, the MICs of several HKIs were measured in different experiments and no major differences (max. 1x dilution) were found in the MICs between the experiments.” for “each plate.”
as §3, §2

E. faecium Van A = experiment: as above; format: cell-based, Enterococcus faecium; details: unit assumed
Experimental: as §1, with “each plate. The MICs were not determined in duplo/triplicate in the same experiment, however, the MICs of several HKIs were measured in different experiments and no major differences (max. 1x dilution) were found in the MICs between the experiments.” for “each plate.”
as §3, §2

[1] = HEK293, read-out: IC50 HEK293 (5 mg/mL stock)
[2] = HEK293, read-out: IC50 HEK293 (50 mg/mL stock)

| SMILES | MIC S. aureus Newman (S. aureus Newman) [µg/mL] | MIC P. multocida (P. multocida) [µg/mL] | IC50 NRK-52E (50 mg/mL stock) (NRK-52E; 50 mg/mL stock) | IC50 HEK293 (5 mg/mL stock) (HEK293; HEK293, 5 mg/mL stock) | IC50 HEK293 (50 mg/mL stock) (HEK293; HEK293, 50 mg/mL stock) | MIC M. marinum (M. marinum) [µg/mL] | MIC E. coli JW5503 (E. coli JW5503) [µg/mL] | MIC S. suis (S. suis) [µg/mL] | MIC E. faecium Van A (E. faecium Van A) [µg/mL] | IC50 (NRK-52E) [µg/mL] | IC50 (HEK293; [1]) [µg/mL] | IC50 (HEK293; [2]) [µg/mL] |
| --- | --- | --- | --- | --- | --- | --- | --- | --- | --- | --- | --- | --- |
| Oc1ccc(-c2n[nH]c(C(F)(F)F)c2-c2ccc(Br)cc2)c(O)c1 [AND-1, 4-[4-(4-bromophenyl)-5-(trifluoromethyl)-1∼{H}-pyrazol-3-yl]resorcinol] | 3.13 (≈ 7.84 µM) | 25 (≈ 62.6 µM) | ∼3.86 | 6.94 | 14.7 | > 50 | 1.56 (≈ 3.91 µM) | 12.5 (≈ 31.3 µM) | 12.5 (≈ 31.3 µM) | – | – | – |
| Cc1noc(-c2ccc(O)cc2O)c1-c1ccc(Br)cc1 [AND-3, 4-[4-(4-bromophenyl)-3-methyl-isoxazol-5-yl]resorcinol] | 25 (≈ 72.2 µM) | 50 (≈ 144 µM) | – | – | – | > 50 | 6.25 (≈ 18.1 µM) | 50 (≈ 144 µM) | 0.78 (≈ 2.25 µM) | ~354 (≈ 1020 µM) | 12.2 (≈ 35.2 µM) | 62.9 (≈ 182 µM) |
| COc1ccc(-c2[nH]nc(C)c2-c2ccc(Br)cc2)c(O)c1 [May-4, 2-[4-(4-bromophenyl)-5-methyl-1∼{H}-pyrazol-3-yl]-5-methoxy-phenol] | 6.25 (≈ 17.4 µM) | 12.5 (≈ 34.8 µM) | – | – | – | 25 (≈ 69.6 µM) | 3.13 (≈ 8.71 µM) | 6.25 (≈ 17.4 µM) | 12.5 (≈ 34.8 µM) | ~83.7 (≈ 233 µM) | 8.96 (≈ 24.9 µM) | – |
| CCOc1ccc(-c2[nH]nc(C(F)(F)F)c2-c2ccc(Br)cc2)c(O)c1 [May-6, 2-[4-(4-bromophenyl)-5-(trifluoromethyl)-1∼{H}-pyrazol-3-yl]-5-ethoxy-phenol] | 1.56 (≈ 3.65 µM) | > 50 | – | – | – | 50 (≈ 117 µM) | 3.13 (≈ 7.33 µM) | 3.13 (≈ 7.33 µM) | 3.13 (≈ 7.33 µM) | ~563 (≈ 1320 µM) | 4.53 (≈ 10.6 µM) | – |
| O=[N+]([O-])c1ccc(COc2ccc(-c3n[nH]c(C(F)(F)F)c3-c3ccc(Br)cc3)c(O)c2)cc1 [May-11, 2-[4-(4-bromophenyl)-5-(trifluoromethyl)-1∼{H}-pyrazol-3-yl]-5-(4-nitrobenzyl)oxyphenol] | 1.56 (≈ 2.92 µM) | > 50 | – | – | – | 12.5 (≈ 23.4 µM) | > 50 | 3.13 (≈ 5.86 µM) | 1.56 (≈ 2.92 µM) | ~3.91 (≈ 7.32 µM) | – | 6.2 (≈ 11.6 µM) |
| NNC(=O)COc1ccc(-c2n[nH]c(C(F)(F)F)c2-c2ccc(Br)cc2)c(O)c1 [May-12, 2-[4-[4-(4-bromophenyl)-5-(trifluoromethyl)-1∼{H}-pyrazol-3-yl]-3-hydroxy-phenoxy]acetohydrazide] | 12.5 (≈ 26.5 µM) | 50 (≈ 106 µM) | – | – | – | > 50 | 6.25 (≈ 13.3 µM) | 6.25 (≈ 13.3 µM) | 12.5 (≈ 26.5 µM) | 27.2 (≈ 57.7 µM) | 7.04 (≈ 14.9 µM) | – |
| Oc1ccc(-c2n[nH]c(C(F)(F)F)c2-c2ccc(Cl)cc2)c(O)c1 [May-14, 4-[4-(4-chlorophenyl)-5-(trifluoromethyl)-1∼{H}-pyrazol-3-yl]resorcinol] | 3.13 (≈ 8.82 µM) | 25 (≈ 70.5 µM) | – | – | – | > 50 | 3.13 (≈ 8.82 µM) | 12.5 (≈ 35.2 µM) | 12.5 (≈ 35.2 µM) | 3.04 (≈ 8.57 µM) | – | 10.6 (≈ 29.9 µM) |
